The text below walks through data of US12030879B2, “Sulfonyl acetamides as NLRP3 inhibitors” (Inflazome Limited, priority 2018, dated 2024).

The structures appear in SMILES notation.

The target in this assay is T1, NLRP3 (Homo sapiens, UniProt Q96P20).
T1 construct: Seed THP-1 cells (25,000 cells/well) containing 1.0 μg/ml LPS in 40 μl of RPMI medium; host or cells: THP-1 cells
T1 sequence (Q96P20 whole entry): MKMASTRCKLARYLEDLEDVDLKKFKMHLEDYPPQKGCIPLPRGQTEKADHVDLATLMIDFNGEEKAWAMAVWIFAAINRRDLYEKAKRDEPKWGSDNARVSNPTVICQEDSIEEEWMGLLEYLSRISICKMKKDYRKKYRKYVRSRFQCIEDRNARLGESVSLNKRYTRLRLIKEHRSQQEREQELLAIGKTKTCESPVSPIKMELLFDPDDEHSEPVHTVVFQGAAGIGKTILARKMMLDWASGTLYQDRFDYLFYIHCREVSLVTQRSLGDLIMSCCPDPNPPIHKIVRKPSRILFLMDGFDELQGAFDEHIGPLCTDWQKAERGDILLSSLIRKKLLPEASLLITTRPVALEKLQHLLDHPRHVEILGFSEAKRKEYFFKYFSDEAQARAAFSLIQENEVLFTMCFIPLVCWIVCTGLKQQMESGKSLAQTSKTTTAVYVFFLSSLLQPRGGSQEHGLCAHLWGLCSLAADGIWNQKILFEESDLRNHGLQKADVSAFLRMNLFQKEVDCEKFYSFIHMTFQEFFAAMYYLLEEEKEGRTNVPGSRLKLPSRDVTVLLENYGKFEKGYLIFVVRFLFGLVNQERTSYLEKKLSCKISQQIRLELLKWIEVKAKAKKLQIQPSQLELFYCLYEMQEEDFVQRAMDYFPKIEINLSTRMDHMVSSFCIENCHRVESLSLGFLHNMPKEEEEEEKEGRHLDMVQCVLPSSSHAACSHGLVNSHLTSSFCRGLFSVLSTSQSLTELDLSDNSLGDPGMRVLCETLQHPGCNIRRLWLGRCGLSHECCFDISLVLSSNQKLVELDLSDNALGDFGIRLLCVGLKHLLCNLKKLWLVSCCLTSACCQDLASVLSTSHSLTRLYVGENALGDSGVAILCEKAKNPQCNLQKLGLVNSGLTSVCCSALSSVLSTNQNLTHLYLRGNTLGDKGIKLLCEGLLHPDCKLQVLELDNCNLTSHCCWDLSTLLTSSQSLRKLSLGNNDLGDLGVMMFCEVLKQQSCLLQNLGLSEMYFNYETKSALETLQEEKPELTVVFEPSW
The assay is described as follows: THP-1 cells pyroptosis assay. Type of assay: cell-based. The conditions noted are these: LPS 1 μg/ml, compound 3 hrs, nigericin 5 μM 1 hr, resazurin readout. In short, it runs like this: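 LPS-primed (1 μg/ml) THP-1 cells in serum-free RPMI were treated 3 h with compound (8-point half-log, top 10 μM; 0.1% DMSO), then with 5 μM nigericin for 1 h at 37°C. Viability was read by 100 μM resazurin (ex 560/em 590 nm) after 1–2 h. IC50 came from 4-parameter nonlinear regression.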
For orientation: IC50 means the concentration that gives 50% inhibition. Higher therefore signals weaker potency in that assay. In the case of `COc1cc(-c2cc(F)cc(C(C)C)c2CC(=O)NS(=O)(=O)c2cc(C)c(C)s2)ccn1` [Example 121], the IC50 is ≤ 0.5 µM. With `COc1cc(-c2cc(F)cc(C(C)C)c2CC(=O)NS(=O)(=O)c2ccc(C)c(C)c2)ccn1` [Example 122], the IC50 is ≤ 0.5 µM. With `COc1cc(-c2cc(F)cc(C(C)C)c2CC(=O)NS(=O)(=O)c2ccc3c(c2)CCC3)ccn1` [Example 123], the IC50 was ≤ 0.5 µM. Take `COc1cc(-c2cc(F)cc(C(C)C)c2CC(=O)NS(=O)(=O)c2ccc3c(c2)COC3)ccn1` [Example 124]: the half-inhibitory concentration (IC50) was ≤ 0.5 µM.

In the case of `COc1cc(-c2cc(F)cc(C(C)C)c2CC(=O)NS(=O)(=O)c2ccc(C)c(F)c2)ccn1` [Example 125], the 50% inhibitory concentration (IC50) is ≤ 0.5 µM. The same measure for `COc1cc(-c2cc(F)cc(C(C)C)c2CC(=O)NS(=O)(=O)c2ccc3ccccc3c2)ccn1` [Example 126]: ≤ 0.5 µM; for `COc1cc(-c2cc(F)cc(C(C)C)c2CC(=O)NS(=O)(=O)c2ccc(-c3cnco3)s2)ccn1` [Example 127]: ≤ 5 µM; for `COc1cc(-c2cc(F)cc(C(C)C)c2CC(=O)NS(=O)(=O)c2cc(Br)ccc2C)ccn1` [Example 128]: ≤ 1 µM.

As for `COc1cc(-c2cc(F)cc(C(C)C)c2CC(=O)NS(=O)(=O)c2ccc(Br)cc2C)ccn1` [Example 129], the IC50 is ≤ 1 µM. The result for `COc1cc(-c2cc(F)cc(C(C)C)c2CC(=O)NS(=O)(=O)c2ccc(CCNC(C)=O)cc2)ccn1` [Example 130] reads ≤ 5 µM; that for `COc1cc(-c2cc(F)cc(C(C)C)c2CC(=O)NS(=O)(=O)c2nn(C)/c(=N\C(C)=O)s2)ccn1` [Example 131], ≤ 5 µM. On to `COc1cc(-c2cc(F)cc(C(C)C)c2CC(=O)NS(=O)(=O)c2ccc(/C(C)=N\O)cc2)ccn1` [Example 132], for which the IC50 was ≤ 5 µM. Take `COc1cc(-c2cc(F)cc(C(C)C)c2CC(=O)NS(=O)(=O)c2cccc(CNC(C)=O)c2)ccn1` [Example 133]: the half-maximal inhibitory concentration (IC50) was ≤ 5 µM. Regarding `COc1cc(-c2cc(F)cc(C(C)C)c2CC(=O)NS(=O)(=O)c2ccc(C(C)(C)F)cc2C)ccn1` [Example 134], the IC50 was ≤ 0.5 µM.

Consider `COc1cc(-c2cc(F)cc(C(C)C)c2CC(=O)NS(=O)(=O)c2ccc(Cl)c(F)c2)ccn1` [Example 135], for which the IC50 is ≤ 5 µM. The result for `COc1cc(-c2cc(F)cc(C(C)C)c2CC(=O)NS(=O)(=O)c2ccc(Cl)cc2C)ccn1` [Example 136] reads ≤ 1 µM. The result for `COc1cc(-c2cc(F)cc(C(C)C)c2CC(=O)NS(=O)(=O)c2ccc(C(C)(C)O)cn2)ccn1` [Example 137] reads ≤ 10 µM. On to `COc1cc(-c2cc(F)cc(C(C)C)c2CC(=O)NS(=O)(=O)c2nnc(NC(C)=O)s2)ccn1` [Example 138], for which the IC50 was ≤ 10 µM. Consider `COc1cc(-c2cc(F)cc(C(C)C)c2CC(=O)NS(=O)(=O)c2cc(F)c(Br)cc2C)ccn1` [Example 139], for which the IC50 was ≤ 0.5 µM. Consider `COc1cc(-c2cc(F)cc(C(C)C)c2CC(=O)NS(=O)(=O)c2ccc(Br)cc2C(F)(F)F)ccn1` [Example 140], for which the IC50 was ≤ 5 µM. For the molecule `COc1cc(-c2cc(F)cc(C(C)C)c2CC(=O)NS(=O)(=O)c2ccc(Cl)c(C(F)(F)F)c2)ccn1` [Example 141], the IC50 is ≤ 1 µM. Take `CC(C)c1cc(F)cc(-c2cccnc2)c1CC(=O)NS(=O)(=O)c1cnc(C(C)(C)O)s1` [Example 142]: the IC50 is ≤ 1 µM. For the molecule `CC(C)c1cc(F)cc(-c2cccnc2)c1CC(=O)NS(=O)(=O)c1ncc(C(C)(C)O)s1` [Example 143], the IC50 is ≤ 1 µM.

In the case of `COc1cc(-c2cc(F)cc(C(C)C)c2CC(=O)NS(=O)(=O)c2cc(C(C)(C)OC)cs2)ccn1` [Example 144], the IC50 was ≤ 0.5 µM. Take `COc1ccc(-c2cc(F)cc(C(C)C)c2CC(=O)NS(=O)(=O)c2cc(C(C)(C)O)cs2)cn1` [Example 145]: the IC50 was ≤ 0.5 µM. For the molecule `COc1cc(-c2cc(F)cc(C(C)C)c2CC(=O)NS(=O)(=O)c2c(C)cc(N(C)C)cc2C)ccn1` [Example 146], the IC50 was ≤ 10 µM.

Regarding `COc1cc(-c2c(CC(=O)NS(=O)(=O)c3cc(C(C)(C)O)cs3)c(C(C)C)nn2C)ccn1` [Example 147], the IC50 is ≤ 5 µM.

On to `COc1cncc(-c2cc(F)cc(C(C)C)c2CC(=O)NS(=O)(=O)c2cc(C(C)(C)O)cs2)c1` [Example 148], for which the IC50 is ≤ 5 µM.

As for `COc1cc(-c2cc(F)cc(C(C)C)c2CC(=O)NS(=O)(=O)c2cc(C(C)(C)O)c(F)cc2F)ccn1` [Example 149], the IC50 is ≤ 0.5 µM. In the case of `C=C(C)c1csc(S(=O)(=O)NC(=O)Cc2c(-c3ccnc(OC)c3)cc(F)cc2C(C)C)c1` [Example 150], the IC50 was ≤ 0.5 µM. Regarding `COc1cc(-c2cc(F)cc(C(C)C)c2CC(=O)NS(=O)(=O)c2ccc(C3CC3)cc2C)ccn1` [Example 151], the IC50 is ≤ 0.5 µM.

In the case of `COc1cc(-c2cc(F)cc(C(C)C)c2CC(=O)NS(=O)(=O)c2c(C)nn(C(C)C)c2C)ccn1` [Example 152], the half-maximal inhibitory concentration (IC50) was ≤ 5 µM.

With `COc1cc(-c2cc(F)cc(C(C)C)c2CC(=O)NS(=O)(=O)c2cc(N(C)C)ccc2C)ccn1` [Example 153], the IC50 is ≤ 5 µM. Turning to `C=C(C)c1csc(S(=O)(=O)NC(=O)Cc2c(C(C)C)nn(C)c2-c2ccnc(OC)c2)c1` [Example 154], the IC50 is ≤ 0.5 µM. For `CNc1cc(C)c(S(=O)(=O)NC(=O)Cc2c(-c3ccnc(OC)c3)cc(F)cc2C(C)C)cc1C` [Example 155], the IC50 is ≤ 5 µM. For `COc1cc(-c2cc(F)cc(C(C)C)c2CC(=O)NS(=O)(=O)c2cc(C(C)C)c(F)cc2F)ccn1` [Example 156], the IC50 was ≤ 0.5 µM.

For the molecule `COc1cc(-c2cc(F)cc(C(C)C)c2CC(=O)NS(=O)(=O)c2ccc(C(C)C)cc2C)ccn1` [Example 157], the IC50 was ≤ 0.5 µM. On to `CC(C)c1cc(F)cc(-c2ccnc(O)c2)c1CC(=O)NS(=O)(=O)c1cc(C(C)(C)O)cs1` [Example 158], for which the IC50 is ≤ 5 µM. The result for `COc1cc(-c2cc(F)cc(C(C)C)c2CC(=O)NS(=O)(=O)c2cc(C(C)(C)O)c(C)s2)ccn1` [Example 159] reads ≤ 0.5 µM; that for `COc1cc(-c2cc(F)cc(C(C)C)c2CC(=O)NS(=O)(=O)c2cc(C(C)(C)O)nn2C)ccn1` [Example 160], ≤ 5 µM; that for `COc1cc(-c2cc(F)cc(C(C)C)c2CC(=O)NS(=O)(=O)c2c(Cl)cc(N(C)C)cc2Cl)ccn1` [Example 161], ≤ 5 µM. For `COc1cc(-c2cc(F)cc(C(C)C)c2CC(=O)NS(=O)(=O)c2cnc(N(C)C)cc2C)ccn1` [Example 162], the IC50 was ≤ 5 µM. The result for `C=C(C)c1csc(S(=O)(=O)NC(=O)Cc2c(-c3ccnc(OC)c3)nn(C)c2C(C)C)c1` [Example 163] reads ≤ 10 µM; that for `C=C(C)c1ccc(S(=O)(=O)NC(=O)Cc2c(-c3ccnc(OC)c3)cc(F)cc2C(C)C)c(C)c1` [Example 164], ≤ 0.5 µM. As to `C=C(C)c1cc(S(=O)(=O)NC(=O)Cc2c(-c3ccnc(OC)c3)cc(F)cc2C(C)C)c(F)cc1F` [Example 165], the IC50 is ≤ 0.5 µM. As to `COc1cc(-c2cc(F)cc(C(C)C)c2CC(=O)NS(=O)(=O)c2cc(Br)c(F)cc2F)ccn1` [Example 166], the IC50 is ≤ 0.5 µM. As to `COc1cc(-c2cc(F)cc(C(C)C)c2CC(=O)NS(=O)(=O)c2cc(C(C)(C)O)ccc2C)ccn1` [Example 167], the IC50 is ≤ 5 µM. Regarding `COc1cc(-c2cc(F)cc(C(C)C)c2CC(=O)NS(=O)(=O)c2c(C)nn(CC(F)(F)F)c2C)ccn1` [Example 168], the IC50 is ≤ 5 µM. On to `COc1cc(-c2cc(F)cc(C(C)C)c2CC(=O)NS(=O)(=O)c2cn(CC(F)F)nc2C)ccn1` [Example 169], for which the IC50 was ≤ 5 µM. With `COc1cc(-c2cc(F)cc(C(C)C)c2CC(=O)NS(=O)(=O)c2cc(C(C)(C)O)ccn2)ccn1` [Example 170], the IC50 is ≤ 0.5 µM.

In the case of `COc1cc(-c2cc(F)cc(C(C)C)c2CC(=O)NS(=O)(=O)c2ccc(C(C)(C)O)nc2)ccn1` [Example 171], the IC50 is ≤ 5 µM. The same measure for `COc1cc(-c2cc(F)cc(C(C)C)c2CC(=O)NS(=O)(=O)c2c(C)nn(CC(C)C)c2C)ccn1` [Example 172]: ≤ 5 µM; for `COc1cc(-c2cc(F)cc(C(C)C)c2CC(=O)NS(=O)(=O)c2cn(C(C)C)nc2C)ccn1` [Example 173]: ≤ 0.5 µM. Regarding `COc1cc(-c2cc(F)cc(C(C)C)c2CC(=O)NS(=O)(=O)c2cc(C(=O)N(C)C)c(C)s2)ccn1` [Example 174], the IC50 is ≤ 0.5 µM. For `COc1cc(-c2cc(F)cc(C(C)C)c2CC(=O)NS(=O)(=O)c2c(C)nn(CC(F)F)c2C)ccn1` [Example 175], the IC50 is ≤ 5 µM. `COC(=O)c1cc(S(=O)(=O)NC(=O)Cc2c(-c3ccnc(OC)c3)cc(F)cc2C(C)C)sc1C` [Example 176]: the IC50 is ≤ 0.5 µM. The same measure for `COc1cc(-c2cc(F)cc(C(C)C)c2CC(=O)NS(=O)(=O)c2ccc(CCN(C)C)cc2)ccn1` [Example 177]: ≤ 5 µM; for `COc1cc(-c2cc(F)cc(C(C)C)c2CC(=O)NS(=O)(=O)c2cc(Br)c(Cl)cc2C)ccn1` [Example 178]: ≤ 1 µM; for `CCC(C)(O)c1ccc(S(=O)(=O)NC(=O)Cc2c(-c3ccnc(OC)c3)cc(F)cc2C(C)C)cc1F` (stereo not drawn) [Example 179]: ≤ 0.5 µM. In the case of `COc1cc(-c2cc(F)cc(C(C)C)c2CC(=O)NS(=O)(=O)c2cccc(CN(C)C)c2)ccn1` [Example 180], the IC50 was ≤ 5 µM. Regarding `COc1cc(-c2cc(F)cc(C(C)C)c2CC(=O)NS(=O)(=O)c2ccnc(C(C)(C)O)c2)ccn1` [Example 181], the IC50 is ≤ 0.5 µM. Regarding `CNC(=O)c1ccc(S(=O)(=O)NC(=O)Cc2c(-c3ccnc(OC)c3)cc(F)cc2C(C)C)c(C)c1` [Example 182], the IC50 was ≤ 10 µM. Turning to `COc1cc(-c2cc(F)cc(C(C)C)c2CC(=O)NS(=O)(=O)c2cc(Br)cs2)ccn1` [Example 183], the half-inhibitory concentration (IC50) was ≤ 1 µM.
